Results published in patent US9238620B1, “Pharmaceutical uses of sulfur-containing compound” (NATIONAL SUN YAT-SEN UNIVERSITY, priority 2014, dated 2016).

How the values were obtained:
[1] = tested on: A549 cells; assay: MTT cell proliferation (cytotoxicity) assay; format: cell-based, Human
Experimental: The MTT assay was performed in the A549 cell lines to measure the cytotoxicity of dihydroaustrasulfone alcohol. All cell lines were seeded in 96-well plates with 2×10^4 cells/well in culture medium. Dihydroaustrasulfone alcohol was dissolved in PBS. The cells were treated with various concentrations of dihydroaustrasulfone alcohol as indicated in each figure. After 24 h, the number of viable cells was determined. Then, 5 mg/mL MTT was added to each well, and the plate was incubated at 37° C. for 3 h. The medium was removed, and 50 μL DMSO was added. The absorbance at 590 nm was measured for each well on an ELISA reader. The data are presented as the mean±SEM of three independent experiments.

[2] = tested on: A549 cells; assay: Flow cytometry analysis of cell cycle and apoptosis (sub-G1); format: cell-based, Human; details: 20 and 40 μg/mL, treatment for 24 h
Experimental: A549 cells (2×10^5) were seeded into each well of a 12-well plate (TPP; Techno Plastic Products AG, Trasadingen, Switzerland) 24 h before being treated with various concentrations of dihydroaustrasulfone alcohol for 24 h. The cells were harvested with trypsin-EDTA, washed twice with 10 mL ice-cold PBS, fixed in 70% (v/v) ethanol, and kept at 4° C. The cells were then stained with propidium iodide (PI) [100 μg/mL PI, 0.2% (v/v) Nonidet P-40, and 1 mg/mL RNase A (DNase-free) in PBS lacking Ca^2+ and Mg^2+ at a 1:1:1 ratio by volume] and the DNA contents were analyzed with flow cytometry (Becton Dickinson, San Jose, Calif., USA). The intensity of PI fluorescence was linearly amplified, and both the area and width of the fluorescence pulse were measured. Ten thousand events were acquired, and the percentage of hypodiploid (apoptosis, sub-G1) events and the percentages of cells in the G0/G1, S and G2/M phases were determined using the DNA analysis software ModFitL T, version 2.0 (Verity Software, Topsham, Me., USA).

[3] = tested on: A549 cells; assay: Wound healing assay; format: cell-based, Human; details: 30 and 40 μg/mL, 18 h
Experimental: For cell motility determination, A549 cells (2×10^5 cells/mL) were seeded in a 12-well tissue culture plate. After one day, the center of the cell monolayers was scraped with a sterile micropipette tip to create a straight zone (gap) of constant width. Then, each well was washed with PBS, and A549 cells were exposed to various concentrations of dihydroaustrasulfone alcohol (20, 30 or 40 μg/mL). Wound closure was monitored and photographed at 0 h and 18 h with a Nikon inverted microscope. To quantify the migrated cells, pictures of the initial wounded monolayers were compared with the corresponding pictures of cells at the end of the incubation. Artificial lines fitting the cutting edges were drawn on pictures of the original wounds and overlaid on the pictures of cultures after incubation. Cells that had migrated across the white lines were counted in six random fields from each triplicate treatment.

[4] = tested on: A549 cells; assay: Trans-well cell migration assay; format: cell-based, Human; details: 30 or 40 μg/mL
Experimental: Tumor cell migration was assayed in trans-well chambers (Millipore) according to the method reported by Huang et al. (Lai, K. C.; Huang, A. C.; Hsu, S. C.; Kuo, C. L.; Yang, J. S.; Wu, S. H.; Chung, J. G. Benzyl isothiocyanate (BITC) inhibits migration and invasion of human colon cancer HT29 cells by inhibiting matrix metalloproteinase-2/-9 and urokinase plasminogen (uPA) through PKC and MAPK signaling pathway. J. Agric. Food Chem. 2010, 58, 2935-2942), with some modifications. Briefly, trans-well chambers with 6.5 mm polycarbonate filters of […] pore size were used. A549 cells (1×10^4 cells/mL) and 20, 30 or 40 μg/mL of dihydroaustrasulfone alcohol were suspended in F-12 (100 μL, serum free), placed in the upper trans-well chamber, and incubated for 24 h at 37° C. Then, the cells on the upper surface of the filter were completely wiped away with a cotton swab, and the lower surface of the filter was fixed in methanol, stained with 10% Giemsa solution, and counted under a microscope at a magnification of 200×. For each replicate, the tumor cells in 10 randomly selected fields were determined and the counts were averaged.

[5] = tested on: MMP-2; assay: Gelatin zymography of A549 conditioned medium, MMP-2; format: cell-based, Human; details: A549 cells, 20, 30, or 40 μg/mL, 24 h
Experimental: (§1) Phytomedicine 2012, 19, 768-778). Briefly, the culture medium was electrophoresed (80 V for 120 min) in an 8% SDS-PAGE gel containing 0.1% gelatin. The gel was then washed at room temperature in a solution containing 2.5% (v/v) Triton X-100 with two changes and subsequently transferred to a reaction buffer for enzymatic reaction containing 1% NaN3; 10 mM CaCl2; and 40 mM Tris-HCl, pH 8.0; at 37° C. with shaking overnight (for 12-15 h). Finally, the MMP gel was stained for […] with 0.25% (w/v) Coomassie blue in 10% acetic acid (v/v) and 20% methanol (v/v) and destained in 10% acetic acid (v/v) and 20% methanol (v/v).

[6] = tested on: MMP-9; assay: Gelatin zymography of A549 conditioned medium, MMP-9; format: cell-based, Human; details: A549 cells, 20, 30, or 40 μg/mL, 24 h
Experimental: as §1

[7] = tested on: FAK; assay: Western blotting in A549 cells, FAK phosphorylation; format: cell-based, Human; details: A549 cells, 20, 30, or 40 μg/mL, 24 h
Experimental: (§2) A549 cells were plated in 10-cm dishes at a density of 3×10^6 cells per dish and incubated with 20, 30 or 40 μg/mL dihydroaustrasulfone alcohol in F-12 containing 1% (v/v) FBS for 24 h. The cells were collected, lysed in a lysis solution, and then incubated at 25° C. for 10 min. Total proteins were separated with SDS-PAGE before being transferred to PVDF membranes. The membranes were blocked with 5% (v/v) nonfat dry milk in PBS-Tween 20 for one hour and changed to an appropriate dilution of specific primary antibodies in TBS-T buffer overnight at 4° C. The blots were then incubated with horseradish peroxidase-linked secondary antibody for 1 h and then developed with the […] (ECL) reagent and exposed to Hyperfilm (Amersham, Arlington Height, Ill., USA). The data were analyzed by Gel-Logic 200 Imaging Systems, Molecular Imaging Software.

[8] = tested on: ERK1/2; assay: Western blotting in A549 cells, ERK1/2 phosphorylation; format: cell-based, Human; details: A549 cells, 20, 30, or 40 μg/mL, 24 h
Experimental: as §2

[9] = tested on: JNK1/2; assay: Western blotting in A549 cells, JNK1/2 phosphorylation; format: cell-based, Human; details: A549 cells, 20, 30, or 40 μg/mL, 24 h
Experimental: as §2

[10] = tested on: AKT; assay: Western blotting in A549 cells, AKT phosphorylation; format: cell-based, Human; details: A549 cells, 20, 30, or 40 μg/mL, 24 h
Experimental: as §2

[11] = tested on: PI3K; assay: Western blotting in A549 cells, PI3K protein level; format: cell-based, Human; details: A549 cells, 20, 30, or 40 μg/mL, 24 h
Experimental: as §2

[12] = tested on: Lewis lung carcinoma (LLC); assay: Lewis lung carcinoma-bearing tumor model, tumor size; format: in vivo, C57BL/6J mice; details: 8 or 16 mg/kg IP daily, 14-day treatment
Experimental: (§3) The animal experiments were approved by the Institutional Animal Care and Use Committee of China Medical University (approval ID: 102-194-C). All animal care followed the institutional animal ethical guidelines of China Medical University. C57BL/6J male mice (average 25-28 g; 6 weeks old) were obtained from the Laboratory Animal Center, College of Medicine, National Taiwan University (Taipei, Taiwan). The C57BL/6J mice were kept on a 12 h light/dark cycle at 25° C. C57BL/6J mice were subcutaneously implanted with LLC cells (7×10^5 cells in 100 μL). The treatment of dihydroaustrasulfone alcohol start while all the tumors volume were larger than 100 mm^3. Eighteen mice were randomly assigned to three treatment groups (6 animals per group). Group I (untreated group) was subcutaneously grafted with LLC cells and given vehicle solvent. Group II was grafted with LLC cells and then treated with dihydroaustrasulfone alcohol (8 mg/kg). Group III was grafted with LLC cells and then treated with dihydroaustrasulfone alcohol (16 mg/kg). The dihydroaustrasulfone alcohol was diluted in normal saline and administered by IP. Body weight and tumor volume were measured every week after cell injection. The tumor width (W) and length (L) were measured every week by calipers, and the tumor volume was calculated as L×W2×0.52. The mice were treated daily for 2 weeks and then sacrificed.

[13] = Lewis lung carcinoma-bearing tumor model, body weight; format: in vivo, C57BL/6J mice; details: 8 or 16 mg/kg IP, days 8 or 14
Experimental: as §3

## CC(=O)CCS(=O)(=O)CCO [dihydroaustrasulfone alcohol]
[1]; 60, 80, and 100 μg/mL, 24 h
  cell viability: significantly suppressed
[1]; Homo sapiens, A549, 24 h, read-out: IC50, viability of A549 cells
  IC50: 273 µM
[2]
  apoptosis in the sub-G1 phase: no effect
[3]
  migration of A549 cells (wound healing): significantly decreased
[4]
  migration of A549 cells (trans-well): significantly decreased
[5]
  activity of MMP-2: significantly inhibited
[6]
  activity of MMP-9: significantly inhibited
[7]
  phosphorylation of FAK: reduced phosphorylation of FAK
[8]
  phosphorylation of ERK1/2: inhibited
[9]
  phosphorylation of JNK1/2: inhibited
[10]
  phosphorylation of AKT: decrease in the phosphorylation
[11]
  protein levels of PI3K: inhibited the protein levels of PI3K in a dose-dependent manner
[12]
  tumor size compared with the LLC control group: significantly reduced
[13]
  body weights compared with the LLC control group: not significantly different
